Data taken from patent US20230382863A1, “MEK INHIBITORS AND USES THEREOF” (Ikena Oncology, Inc., priority 2022, published 2023).

What was measured:
uMEK/BRAF = uMEK/BRAF (Homo sapiens (Human), UniProt Q02750); test: MEK-RAF Binding Assay (uMEK/BRAF HTRF)
[1] = system: Phosphorylation of ERK1/2 in AsPC1 cells; test: 4 hour pERK1/2 HTRF Assay; assay type: cell-based; conditions: Homo sapiens, ASPC1, read-out: pERK AsPC-1 HTRF (4 hour): Average IC50 (nM); AsPC-1, 4 hour
Procedure: AsPC1 cells were seeded at 20,000 cells/well overnight in 96-well plates, then treated with a 12-point dose response of compounds (Starting dose of 3000 nM and 3-fold dilution) for 4 hours. AsPC1 cells are a K-Ras mutant cell line. Phosphorylation of ERK1/2 on residues Thr202 and Tyr204 were detected using a Homogenous Time-Resolved Fluorescence (HTRF) assay (Cisbio Cat #64ERKPEG). Briefly, ERK phosphorylation was detected using a sandwich assay format using two phospho-ERK specific antibodies, one labelled with EU^3+-Cryptate (donor) and the second with d2 (acceptor). The Fluorescence Resonance Energy Transfer (FRET) towards the d2 acceptor was detected at a wavelength of 665 nm. ERK1/2 phosphorylation levels were normalized to total ERK1/2 protein levels in each well. IC50 values were determined by fitting a variable slope, four parameters curve to the compound concentration to normalized Phospho-ERK1/2 relationship.

Pharmacokinetics in rat = assay type: in vivo; conditions: plasma, IV, 1 mg/kg; for Vd: read-out: Vdss
MEK1-CRAF complex = MEK1-CRAF complex (Homo sapiens (Human), UniProt Q02750); test: Stabilization of MEK1-CRAF complex assay (AlphaLISA); assay type: binding
Procedure: MEK1 was diluted to 4 nM, and nickel chelate donor beads and glutathione acceptor beads were diluted to 80 μg/mL. CRAF was diluted to a top concentration of 160 nM, which was subsequently diluted to 80, 40, 20, 10, 5, 2.5, 1.25, and 0.625 nM through 1:2 serial dilution.
Exemplary MEK inhibitor compounds (0, 0.01, 0.1, or 1 μM) were added to a 384-AlphaPlate (PerkinElmer, 6008350) by a digital liquid dispenser (Tecan D300e) based on a total volume of 20 μL reaction mixture.
5 μL 4×MEK1 stock solution was added to wells A1-P20 by multichannel pipettes. The plate was sealed with clear olefin sealing tape (Thermo Scientific, 232701), centrifuged at 1000 rpm for 1 minute, and incubated at room temperature for 30 minutes.
5 μL 4×CRAF stock solution at different concentrations or 5 μL or 10 μL AlphaLISA buffer was added by multichannel pipettes. The plate was sealed, centrifuged at 1000 rpm for 1 minute, and incubated at room temperature for 60 minutes.
5 μL 4×glutathione acceptor beads were first added to all wells by multichannel pipettes. The ambient light was subsequently adjusted to <100 lux (light meter) before adding 5 μL 4×nickel chelate donor beads to the same wells. From this step on, the plate was covered with a black plate cover, centrifuged at 1000 rpm for 1 minute, and incubated at room temperature for 60 minutes.
Data were collected on a PHERAStar FSX (BMG LABTECH) using the AlphaLISA module (excitation: 680 nm, emission: 615 nm), with a gain of 3600. The excitation time was 0.30 seconds, and data collection started after a 0.04-second delay for a total integration time of 0.60 seconds.
The individual AlphaLISA counts of wells with exemplary MEK inhibitor compound were divided by the average AlphaLISA counts of wells without compound to obtain AlphaLISA signal/background ratio (S/B). The dissociation constant (KD) of MEK1-CRAF was calculated using nonlinear regression curve fit in GraphPad PRISM® 9.0 software.

[2] = Cassette pharmacokinetics studies in mice; assay type: in vivo; conditions: male, Balb/c, plasma; Mouse, PO, 5 mg/kg
Procedure: Pharmacokinetics studies were conducted using cassette dosing protocols, with test compounds administered per mouse. Treatment groups were 3 mice (˜6-8 weeks old, ˜20-30 g Balb/c male mice) per route of administration. Compounds were formulated in 5% DMSO and 95% PEG400 with final concentrations of 0.5 mg/mL for IV and PO dosing. Compounds were dosed at 2 mg/kg for IV dosing and 5 mg/kg for PO dosing. Blood samples were withdrawn at 0.083, 0.25, 0.5, 1.0, 2.0, 4.0, 6.0, 8.0, and 24 hours following IV dosing, and 0.25, 0.5, 1.0, 2.0, 4.0, 6.0, 8.0, and 24 hours following PO dosing. Blood samples were centrifuged at 4,000 g for 5 minutes at 4° C. to obtain plasma samples. Plasma samples were diluted with acetonitrile containing internal standard, vortexed for 30 seconds, then centrifuged at 4,000 rpm for 15 minutes at 4° C. The supernatant was diluted with water, and compound concentration was determined by HPLC/MS/MS compared to calibration standards of 0.5-1,000 ng/mL.
Where route is listed as “IV*”, the compound was dosed IV at 1 mg/kg.

cancer cell lines = test: In vitro MEK inhibitor drug combinations (Cell Titer Glo, Loewe synergy); assay type: cell-based; conditions: combination with I-2, 5 days
Procedure: Cell viability was determined by Cell Titer Glo assay. […] A normalized Loewe sum of synergy score of >10 was considered synergistic, <10, but >−10 additive, and <−10 antagonistic.

[3] = system: SKM-1 xenograft (KRAS K117N); test: In vivo efficacy, SKM-1 xenograft model; parameters: species or system mouse; conditions: SKM-1 model, 100 mg/kg QD, Day 22
Procedure: (§1) The antitumor activity of exemplary MEK inhibitor compounds is evaluated in vivo using human cell line derived xenografts (CDX) grown in immunodeficient mice. For these studies, AsPC1 (pancreatic cell line with KRAS G12D mutation), NCI-H2122 (lung cell line with KRAS G12C mutation), and 5637 (bladder cell line with CRAF amplification) models are used. In addition, HCT-116 (colorectal cell line with KRAS G13D mutation), SKM-1 (AML cell line with KRAS K117N mutation), and OCI-AML-3 (AML cell line with NRAS Q61L mutation) models are used. The tumor cell lines (AsPC-1, NCI-H2122, 5637, and HCT-116 cells) are maintained in vitro as monolayer culture in medium at 37° C. in an atmosphere of 5% CO2 in air. The tumor cell lines (SKM-1 and OCI-AML-3 cells) are maintained in vitro as a suspension in medium at 37° C. in an atmosphere of 5% CO2 in air. The tumor cells are routinely sub-cultured before confluence by trypsin-EDTA treatment, not to exceed 4-5 passages. The cells growing in an exponential growth phase are harvested for tumor inoculation. AsPC1, NCI-H2122, and OCI-AML-3 tumors are implanted into Balb/c nude mice. HCT-116 tumors are implanted into Nu/Nu mice. 5637 and SKM-1 tumors are implanted into NOG mice. Each mouse is inoculated subcutaneously on the right flank with tumor cells in a 1:1 mixture with matrigel. Tumors are allowed to grow to approximately 150-200 mm^3. At this time, mice are assigned to groups such that the mean tumor volume is the same for each treatment group. The MEK inhibitor compound treatments are administrated to the tumor-bearing mice via oral gavage. Throughout the study, mouse body weight and tumor volume are recorded. The measurement of tumor size is conducted twice weekly with a caliper and recorded. The tumor volume (mm^3) is estimated using the formula: TV=a×b^2/2, where “a” and “b” are long and short diameters of a tumor, respectively.

[4] = system: OCI-AML-3 xenograft (NRAS Q61L); test: In vivo efficacy, OCI-AML-3 xenograft model; parameters: species or system mouse; conditions: OCI-AML-3 model, 100 mg/kg QD, Day 15
Procedure: as §1

[5] = AsPC-1, HPAF, MiaPACA2, NCI-H1373, NCI-H2122, PANC03276

Chain of uMEK/BRAF (Q02750 whole entry): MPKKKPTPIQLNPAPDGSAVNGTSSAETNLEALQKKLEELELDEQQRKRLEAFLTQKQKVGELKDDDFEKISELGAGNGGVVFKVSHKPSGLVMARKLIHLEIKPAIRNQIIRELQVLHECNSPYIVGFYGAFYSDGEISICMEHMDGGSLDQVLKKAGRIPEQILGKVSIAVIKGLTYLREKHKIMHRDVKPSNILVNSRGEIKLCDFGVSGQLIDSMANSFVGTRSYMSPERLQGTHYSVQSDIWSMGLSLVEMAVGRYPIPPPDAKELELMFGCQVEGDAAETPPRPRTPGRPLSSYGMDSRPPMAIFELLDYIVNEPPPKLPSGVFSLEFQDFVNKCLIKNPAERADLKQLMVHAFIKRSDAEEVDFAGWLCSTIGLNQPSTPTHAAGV
Chain of MEK1-CRAF complex (Q02750 whole entry, looked up): as the sequence (Q02750 whole entry) above
Chain of MEK1-CRAF complex (P04049 whole entry partner, looked up): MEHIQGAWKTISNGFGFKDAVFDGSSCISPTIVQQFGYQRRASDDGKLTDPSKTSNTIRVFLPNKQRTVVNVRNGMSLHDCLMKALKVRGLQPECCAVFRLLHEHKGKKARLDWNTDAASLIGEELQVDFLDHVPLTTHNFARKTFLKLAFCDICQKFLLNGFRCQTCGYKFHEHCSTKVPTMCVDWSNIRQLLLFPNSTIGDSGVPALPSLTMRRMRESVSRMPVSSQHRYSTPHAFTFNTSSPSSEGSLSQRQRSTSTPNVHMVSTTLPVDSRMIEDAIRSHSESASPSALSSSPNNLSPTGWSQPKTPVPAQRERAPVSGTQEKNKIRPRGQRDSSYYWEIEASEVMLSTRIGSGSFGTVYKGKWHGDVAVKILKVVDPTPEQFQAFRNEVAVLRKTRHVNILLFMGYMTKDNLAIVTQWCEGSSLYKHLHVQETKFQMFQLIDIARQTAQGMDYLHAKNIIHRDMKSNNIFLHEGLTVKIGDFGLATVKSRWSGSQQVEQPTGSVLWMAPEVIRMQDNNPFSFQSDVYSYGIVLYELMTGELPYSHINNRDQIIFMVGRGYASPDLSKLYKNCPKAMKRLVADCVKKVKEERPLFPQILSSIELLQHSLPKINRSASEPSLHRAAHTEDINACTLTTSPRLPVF

Structure (SMILES): Cc1c(Oc2cccc(NS(=O)(=O)NC3CC3)c2Cl)c(C(=O)NC2CC2)c(Nc2ccc(I)cc2F)n(C)c1=O [Compound I-42]
- IC50 (uMEK/BRAF): < 100 nM
- IC50 [1]: < 100 nM
- AUC(0-inf) (Pharmacokinetics in rat): 217 ng·h/mL
- AUC(0-t) (Pharmacokinetics in rat): 205 ng·h/mL
- clearance (Pharmacokinetics in rat): 76.8 mL/min/kg
- half-life (Pharmacokinetics in rat): 2.09 h
- Vd (Pharmacokinetics in rat): 9.9 L/kg
- KD Ratio (mean), compound to DMSO (MEK1-CRAF complex; compound 0.01 μM): 0.78
- KD Ratio (mean), compound to DMSO (MEK1-CRAF complex; compound 0.1 μM): 0.57
- KD Ratio (mean), compound to DMSO (MEK1-CRAF complex; compound 1 μM): 0.57
- AUC(0-inf) [2]: 511 ng·h/mL
- AUC(0-t) [2]: 506 ng·h/mL
- Cmax [2]: 418 ng/mL
- Tmax [2]: 0.4 h
- half-life [2]: 1.11 h

Structure (SMILES): CCNS(=O)(=O)Nc1cccc(Oc2c(C(=O)NC3CC3)c(Nc3ccc(I)cc3F)n(C)c(=O)c2C)c1Cl [Compound I-43]
- IC50 (uMEK/BRAF): < 100 nM
- IC50 [1]: < 100 nM
- KD Ratio (mean), compound to DMSO (MEK1-CRAF complex; compound 0.01 μM): 0.69
- KD Ratio (mean), compound to DMSO (MEK1-CRAF complex; compound 0.1 μM): 0.52
- KD Ratio (mean), compound to DMSO (MEK1-CRAF complex; compound 1 μM): 0.51
- AUC(0-inf) [2]: 803 ng·h/mL
- AUC(0-t) [2]: 763 ng·h/mL
- Cmax [2]: 488 ng/mL
- Tmax [2]: 0.3 h
- half-life [2]: 3.92 h

Structure (SMILES): Cc1c(Oc2cccc(NS(=O)(=O)NCC(F)(F)F)c2Cl)c(C(=O)NC2CC2)c(Nc2ccc(I)cc2F)n(C)c1=O [Compound I-46]
- IC50 (uMEK/BRAF): < 100 nM
- IC50 [1]: < 100 nM
- AUC(0-inf) (Pharmacokinetics in rat): 1590 ng·h/mL
- AUC(0-t) (Pharmacokinetics in rat): 1550 ng·h/mL
- clearance (Pharmacokinetics in rat): 10.5 mL/min/kg
- half-life (Pharmacokinetics in rat): 1.86 h
- Vd (Pharmacokinetics in rat): 1 L/kg
- AUC(0-inf) [2]: 3800 ng·h/mL
- AUC(0-t) [2]: 3770 ng·h/mL
- Cmax [2]: 1430 ng/mL
- Tmax [2]: 0.6 h
- half-life [2]: 2.8 h

Structure (SMILES): COCCNS(=O)(=O)Nc1cccc(Oc2c(C(=O)NC3CC3)c(Nc3ccc(I)cc3F)n(C)c(=O)c2C)c1Cl [Compound I-55]
- IC50 (uMEK/BRAF): < 100 nM
- IC50 [1]: < 100 nM
- KD Ratio (mean), compound to DMSO (MEK1-CRAF complex; compound 0.01 μM): 0.76
- KD Ratio (mean), compound to DMSO (MEK1-CRAF complex; compound 0.1 μM): 0.58
- KD Ratio (mean), compound to DMSO (MEK1-CRAF complex; compound 1 μM): 0.51
- AUC(0-inf) [2]: 1090 ng·h/mL
- AUC(0-t) [2]: 1090 ng·h/mL
- Cmax [2]: 801 ng/mL
- Tmax [2]: 0.4 h
- half-life [2]: 1.58 h

Structure (SMILES): CO[C@H]1C[C@@H]2CC[C@@H](C)[C@@](O)(O2)C(=O)C(=O)N2CCCC[C@H]2C(=O)O[C@H]([C@H](C)C[C@@H]2CC[C@@H](OCCO)[C@H](OC)C2)CC(=O)[C@H](C)/C=C(\C)[C@@H](O)[C@@H](OC)C(=O)[C@H](C)C[C@H](C)/C=C/C=C/C=C/1C [Everolimus]
- Loewe Synergy Score > 10 (cancer cell lines; [5]): 5/6 cell lines

Structure (SMILES): C[C@H](Nc1ccc2c(c1)OCCn1cc(N3C(=O)OC[C@H]3C(F)F)nc1-2)C(N)=O [Inavolisib]
- Loewe Synergy Score > 10 (cancer cell lines; [5]): 5/6 cell lines

Structure (SMILES): Cc1ccc(NC(=O)c2ccnc(C(F)(F)F)c2)cc1-c1cc(OCCO)nc(N2CCOCC2)c1 [LXH254]
- Loewe Synergy Score > 10 (cancer cell lines; [5]): 6/6 cell lines

Structure (SMILES): O=C1CCc2c(Oc3ccc4c(c3)[C@@H]3[C@H](O4)[C@H]3c3nc4ccc(C(F)(F)F)cc4[nH]3)ccnc2N1 [Lifirafenib]
- Loewe Synergy Score > 10 (cancer cell lines; NCI-H358, NCI-H1373, NCI-H2122): 3/3 cell lines

Structure (SMILES): Cc1nc(N2CCC3(CC2)CO[C@@H](C)[C@H]3N)c(CO)nc1-c1cccc(Cl)c1Cl [RMC-4550]
- Loewe Synergy Score > 10 (cancer cell lines; [5]): 3/6 cell lines

Structure (SMILES): C=CC(=O)N1CCN(c2nc(=O)n(-c3c(C)ccnc3C(C)C)c3nc(-c4c(O)cccc4F)c(F)cc23)[C@@H](C)C1 [Sotorasib]
- Loewe Synergy Score > 10 (cancer cell lines; NCI-H358, NCI-H1373, NCI-H2122, MiaPACA2, NCI-H2030): 4/5 cell lines

Structure (SMILES): CC1(C)CCC(CN2CCN(c3ccc(C(=O)NS(=O)(=O)c4ccc(NCC5CCOCC5)c([N+](=O)[O-])c4)c(Oc4cnc5[nH]ccc5c4)c3)CC2)=C(c2ccc(Cl)cc2)C1 [venetoclax, reference compound]
- percent TGI [3]: 46.6%
- weight gain [3]: 7.5%
- percent TGI [4]: 13%
- weight gain [4]: 8.3%
